Data taken from the NIST ThermoML archive (doi:10.1016/j.fluid.2019.01.021).

Conditions: Liquid, Capillary tube (Ostwald / Ubbelohde) method

CC(C)CC(C)(C)C [2,2,4-trimethylpentane]
298.15 K
Conditions	viscosity [mPa·s]
100 kPa	0.48
26000 kPa	0.641
50000 kPa	0.809
100000 kPa	1.207
200000 kPa	2.35
312000 kPa	4.41
407000 kPa	7.7
499000 kPa	12.63
600000 kPa	21.3
700000 kPa	36.4
800000 kPa	61.5
900000 kPa	104.8

CCC(C)CC(C)(C)C (stereo unspecified) [2,2,4-trimethylhexane]
293.15 K
Conditions	viscosity [mPa·s]
100 kPa	0.64
25000 kPa	0.844
50000 kPa	1.101
100000 kPa	1.71
150000 kPa	2.54
250000 kPa	5.31
350000 kPa	10.67
400000 kPa	15
500000 kPa	30.9
600000 kPa	62.9
700000 kPa	126.9
800000 kPa	264
900000 kPa	558
1000000 kPa	1187
